# Reference: patent US11492405B2, “Reducing systemic regulatory t cell levels or activity for treatment of disease and injury of the CNS” (Yeda Research and Development Co. Ltd, priority 2014, dated 2022)
# How the values were obtained:
# Foxp3+ Tregs = experiment: Conditional ablation of Treg by DTx, flow cytometry of blood and spleen; assay type: in vivo, mouse
# Description: Mice were transcardially perfused with PBS, and tissues were treated as previously described (Baruch et al, 2013). Brains were dissected and the different brain regions were removed under a dissecting microscope (Stemi DV4; Zeiss) in PBS, and tissues were dissociated using the gentleMACS™ dissociator (Miltenyi Biotec). Choroid plexus tissues were isolated from the lateral, third and fourth ventricles of the brain, incubated at 37° C. for 45 min in PBS (with Ca^2+/Mg^2+) containing 400 U/ml collagenase type IV (Worthington Biochemical Corporation), and then manually homogenized by pipetting. Spleens were mashed with the plunger of a syringe and treated with ACK (ammonium chloride potassium) lysing buffer to remove erythrocytes. In all cases, samples were stained according to the manufacturers' protocols. All samples were filtered through a 70 μm nylon mesh, and blocked with anti-Fc CD16/32 (1:100; BD Biosciences). For intracellular staining of IFN-γ, the cells were incubated with […] (10 ng/ml; Sigma-Aldrich) and ionomycin (250 ng/ml; Sigma-Aldrich) for 6 h, and Brefeldin-A (10 μg/ml; Sigma-Aldrich) was added for the last 4 h. Intracellular labeling of cytokines was done with BD Cytofix/Cytoperm™ Plus fixation/permeabilization kit (cat. no. 555028). […] Cells were analyzed on an LSRII cytometer (BD Biosciences) using FlowJo software. […]
# 5XFAD AD-Tg mice = experiment: Aβ plaque quantitation (immunohistochemistry) in 5XFAD AD-Tg mice; assay type: in vivo, mouse; settings: AD-Tg/Foxp3-DTR+ mice, 3 weeks after last DTx injection
# Description: Tissue processing and immunohistochemistry were performed on paraffin embedded sectioned mouse (6 μm thick) and human (10 μm thick) brains. For human ICAM-1 staining, primary mouse anti-ICAM (1:20 Abcam; ab2213) antibody was used. Slides were incubated for 10 min with 3% H2O2, and a secondary biotin-conjugated anti-mouse antibody was used, followed by biotin/avidin amplification with Vectastain ABC kit (Vector Laboratories). Subsequently, 3,3′-diaminobenzidine (DAB substrate) (Zytomed kit) was applied; slides were dehydrated and mounted with xylene-based mounting solution. For tissue stainings, mice were transcardially perfused with PBS prior to tissue excision and fixation. CP tissues were isolated under a dissecting microscope (Stemi DV4; Zeiss) from the lateral, third, and fourth ventricles of the brain. For whole mount CP staining, tissues were fixated with 2.5% paraformaldehyde (PFA) for 1 hour at 4° C., and subsequently transferred to PBS containing 0.05% sodium azide. Prior to staining, the dissected tissues were washed with PBS and blocked (20% horse serum, 0.3% Triton X-100, and PBS) for 1 h at room temperature. Whole mount staining with primary antibodies (in PBS containing 2% horse serum and 0.3% Triton X-100), or secondary antibodies, was performed for 1 h at room temperature. Each step was followed by three washes in PBS. The tissues were applied to slides, mounted with Immu-mount (9990402, from Thermo Scientific), and sealed with cover-slips. For staining of sectioned brains, two different tissue preparation protocols (paraffin embedded or microtomed free-floating sections) were applied, as previously described (Baruch et al, 2013; Kunis et al, 2013). […] Microscopic analysis, was performed using a fluorescence microscope (E800; Nikon) or laser-scanning confocal microscope (Carl Zeiss, Inc.). The fluorescence microscope was equipped with a digital camera (DXM 1200F; Nikon), and with either a 20×NA 0.50 or 40×NA 0.75 objective lens (Plan Fluor; Nikon). […] For quantification of staining intensity, total cell and background staining was measured using ImageJ software (NIH), and intensity of specific staining was calculated, as previously described (Burgess et al, 2010). […]
# From each brain, 6 μm coronal slices were collected, and eight sections per mouse, from four different pre-determined depths throughout the region of interest (dentate gyrus or cerebral cortex) were immunostained. […]
substance,measurement,setting,value
Diphtheria toxin [DTx],depletion of GFP-expressing FoxP3+CD4+ Treg cells,"Foxp3+ Tregs; blood and spleen, Foxp3.LuciDTR mice, DTx 8 ng/g i.p. daily for 4 days",> 99%
same,depletion of Foxp3+ cells,"Foxp3+ Tregs; splenocytes of AD-Tg/Foxp3-DTR+/− mice, 1 day after last of 4 daily i.p. DTx injections",~99%
same,cerebral Aβ plaque burden in hippocampal dentate gyrus and cerebral cortex (5th layer),5XFAD AD-Tg mice,reduced
